# According to publication PMC6295231 (Clinical cancer research : an official journal of the …, 2018):
# Columns and labels:
# [1] = system: ELK1-dependent promoter activation by AR; test: primary screening assay; type: cell-based; settings: for IC50: Homo sapiens, HeLa, read-out: IC50 for inhibition of ELK1-dependent promoter activation by AR; for IC50 for inhibition of ELK1-dependent promoter activation by AR: primary screening assay, compound dose range of 1-10μM
# ELK1 (Homo sapiens) = ELK1 (Homo sapiens) (UniProt P19419); settings: cited from earlier work
# ELK1 (Homo sapiens), sequence (P19419 whole entry): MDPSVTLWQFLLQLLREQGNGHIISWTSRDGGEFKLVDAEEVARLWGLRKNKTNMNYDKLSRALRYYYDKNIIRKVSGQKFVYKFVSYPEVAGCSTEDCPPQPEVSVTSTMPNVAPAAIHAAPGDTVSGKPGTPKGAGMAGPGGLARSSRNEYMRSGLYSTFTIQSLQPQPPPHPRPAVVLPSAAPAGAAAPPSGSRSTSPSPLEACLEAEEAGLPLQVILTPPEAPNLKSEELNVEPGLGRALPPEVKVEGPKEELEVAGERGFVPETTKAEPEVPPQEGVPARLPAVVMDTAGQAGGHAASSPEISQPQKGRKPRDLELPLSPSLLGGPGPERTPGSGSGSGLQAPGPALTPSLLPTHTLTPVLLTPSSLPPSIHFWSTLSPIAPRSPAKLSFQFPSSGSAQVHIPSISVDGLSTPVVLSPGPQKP
# VCaP cells = test: MTT growth assay, VCaP; settings: androgen-dependent cells
# 22Rv1 cells = test: MTT growth assay, 22Rv1; settings: androgen-independent cells; up to 20 uM
# LNCaP cells = test: MTT growth assay, LNCaP; settings: androgen-dependent cells; up to 20 uM
# [2] = system: PDX-PR011 tumor xenograft; test: PDX-PR011 patient-derived tumor xenograft in male SCID mice; settings: for tumor growth, PDX-PR011 xenograft: treatment from Day 1 after implantation
# [3] = system: activation of ELK1 by MEK/ERK; type: cell-based; settings: HeLa cells co-transfected
# [4] = target: association of AR with ELK1 (Homo sapiens, UniProt P10275); test: BRET assay of association of ELK1 with AR in HEK293T cells; type: cell-based; settings: pre-incubation
# purified human AR = target: T1, purified human AR (Homo sapiens, UniProt P10275); test: surface plasmon resonance, binding to immobilized AR; settings: for Kd: dissociation constant (Kd) for binding to AR, SPR, AR immobilized
# T1 sequence (P10275 1-920): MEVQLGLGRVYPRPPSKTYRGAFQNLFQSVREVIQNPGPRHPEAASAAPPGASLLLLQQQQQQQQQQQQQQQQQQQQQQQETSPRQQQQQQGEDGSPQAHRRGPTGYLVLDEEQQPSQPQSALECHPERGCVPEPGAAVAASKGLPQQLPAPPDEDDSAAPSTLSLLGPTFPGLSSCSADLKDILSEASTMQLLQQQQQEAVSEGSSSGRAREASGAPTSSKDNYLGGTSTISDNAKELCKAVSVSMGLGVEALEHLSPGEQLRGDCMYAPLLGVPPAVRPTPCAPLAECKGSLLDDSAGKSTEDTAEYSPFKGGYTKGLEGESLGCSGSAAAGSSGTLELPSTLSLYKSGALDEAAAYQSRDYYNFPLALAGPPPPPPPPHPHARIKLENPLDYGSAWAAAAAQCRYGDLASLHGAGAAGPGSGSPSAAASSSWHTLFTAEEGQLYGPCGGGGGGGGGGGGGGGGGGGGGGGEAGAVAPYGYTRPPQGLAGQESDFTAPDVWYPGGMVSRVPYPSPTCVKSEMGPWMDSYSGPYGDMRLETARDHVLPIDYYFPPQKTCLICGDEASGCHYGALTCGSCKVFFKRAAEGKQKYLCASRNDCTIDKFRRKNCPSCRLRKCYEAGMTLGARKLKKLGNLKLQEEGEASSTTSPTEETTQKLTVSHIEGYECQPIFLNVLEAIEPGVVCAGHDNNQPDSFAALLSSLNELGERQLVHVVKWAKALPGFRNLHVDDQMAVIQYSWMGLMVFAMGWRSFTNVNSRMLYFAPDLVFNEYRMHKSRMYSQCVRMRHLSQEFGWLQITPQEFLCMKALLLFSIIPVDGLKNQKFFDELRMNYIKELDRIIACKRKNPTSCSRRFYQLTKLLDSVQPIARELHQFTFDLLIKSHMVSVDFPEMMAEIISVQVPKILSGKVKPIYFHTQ
# ELK1 = ELK1 (Homo sapiens, UniProt P19419); test: surface plasmon resonance, binding to immobilized ELK1; settings: SPR
# ELK1, sequence (P19419 whole entry): as the sequence (P19419 whole entry) above
# binding of AR to ELK1 = binding of AR to ELK1 (Homo sapiens, UniProt P10275); test: SPR competition: binding of AR; settings: AR 200 nM
# [5] = system: AR recruitment to chromatin in LNCaP cells; test: chromatin immunoprecipitation; type: cell-based; settings: R1881 10nM + KCI807 20uM, 2h
# AR-V7 = test: hormone-independent promoter activation by AR-V7; type: cell-based; settings: relatively higher concentrations required
# [6] = system: AR target genes in 22Rv1 cells; test: real time RT-PCR of AR target genes in 22Rv1 cells; type: cell-based; settings: 10 µM, 72h
# [7] = system: DU145 (prostate cancer cells); test: growth of AR-negative cells, DU145; type: cell-based
# [8] = system: HeLa (cervical cancer cells); test: growth of AR-negative cells, HeLa; type: cell-based
# [9] = system: HEK293 (adenovirus transformed kidney fibroblasts); test: growth of AR-negative cells, HEK293; type: cell-based
# [10] = system: H1650 (lung adenocarcinoma cells); test: growth of AR-negative cells, H1650; type: cell-based
# [11] = system: AR or AR-V7 protein level; test: protein level of AR / AR-V7 in PC/CRPC cell lines; type: cell-based
# [12] = mouse, in vivo
# in vivo = settings: SCID, mouse
# 22Rv1 CRPC cells = test: colony formation assay, 22Rv1
# [13] = plasma/serum levels and metabolites of KCI807 by LC-MS/MS; settings: mice, 250 mg/kg IP alternate days, 6h after last injection
# [14] = system: ARE-dependent promoter activation by AR; test: counter screening assay; type: cell-based; settings: words
# [15] = easily oxidized; ref [33], [34]; cited from earlier work
compound,measurement,setting,value
"O=c1cc(-c2ccc(O)cc2)oc2cccc(O)c12 [5,4’-Dihydroxyflavone]",IC50,[1],5480 nM
O=c1cc(-c2ccccc2)oc2cc(O)cc(O)c12 [5.7-Dihydroxyflavone],IC50 for inhibition of ELK1-dependent promoter activation by AR,[1],No effect
"COc1cc(OC)c2c(=O)cc(-c3ccc(OC)c(OC)c3)oc2c1 [5,7,3’,4’-Tetramethoxyflavone]",IC50 for inhibition of ELK1-dependent promoter activation by AR,[1],No effect
"COc1ccc(-c2cc(=O)c3c(O)c(OC)c(OC)cc3o2)cc1O [5,3’-Dihydroxy-6,7,4’-trimethoxyflavone]",IC50,[1],4170 nM
AR (from UniProt P10275),Kd,ELK1 (Homo sapiens),20 nM
"O=c1cc(-c2ccc(O)c(O)c2)oc2cc(O)ccc12 [7,3’,4’-Trihydroxyflavone]",IC50 for inhibition of ELK1-dependent promoter activation by AR,[1],No effect
"COc1ccc(-c2cc(=O)c3c(O)cc(O)cc3o2)cc1O [5,7,3’-Trihydroxy-4’-methoxyflavone]",IC50,[1],1370 nM
O=c1cc(-c2ccccc2)oc2cccc(O)c12 [5-Hydroxyflavone],IC50,[1],> 10000 nM
"COc1cc(-c2cc(=O)c3c(O)cc(O)cc3o2)ccc1O [5,7,4’-Trihydroxy-3’-methoxyflavone]",IC50 for inhibition of ELK1-dependent promoter activation by AR,[1],No effect
"O=c1cc(-c2ccc(O)cc2)oc2cc(O)ccc12 [7,4’-Dihydroxyflavone]",IC50 for inhibition of ELK1-dependent promoter activation by AR,[1],No effect
"CNC(=O)c1ccc(N2C(=S)N(c3ccc(C#N)c(C(F)(F)F)c3)C(=O)C2(C)C)cc1F [enzalutamide, reference compound]","cell growth inhibition, MTT, VCaP",VCaP cells,most sensitive
same,"cell growth inhibition, MTT, 22Rv1",22Rv1 cells,only showed partial effects
same,"cell growth inhibition, MTT, LNCaP",LNCaP cells,only showed partial effects
same,"tumor growth, PDX-PR011 xenograft",[2],insensitive
"O=c1cc(-c2ccc(O)c(O)c2)oc2cccc(O)c12 [5,3’,4’-Trihydroxyflavone]",IC50,[1],1010 nM
"CC(=O)Nc1cccc(-n2c(=O)n(C3CC3)c(=O)c3c(Nc4ccc(I)cc4F)n(C)c(=O)c(C)c32)c1 [trametinib, reference compound]","inhibition of luciferase reporter activation by MEK1 (caMEK1, Gal4-ELK1)",[3],completely inhibited
"O=c1cc(-c2cccc(O)c2)oc2cccc(O)c12 [KCI807, 5,3’-Dihydroxyflavone]",IC50,[1],530 nM
same,"inhibition of luciferase reporter activation by MEK1 (caMEK1, Gal4-ELK1)",[3],did not inhibit
same,BRET coupling between ELK1 and AR,[4],inhibited
same,dissociation constant for AR relative to that for binding of ELK1 to AR,purified human AR; ELK1-AR value ref [25],~ 3 times
same,Kd,purified human AR,69.2 nM
same,binding to immobilized ELK1,ELK1,did not bind
same,blocking of binding of purified AR (analyte) to immobilized ELK1,binding of AR to ELK1,blocked binding
same,"AR recruitment at canonical ARE enhancer sites (KLK3, TMPRSS2)",[5],did not impede
same,association of AR with chromatin sites at which ELK1 recruits AR,[5],prevented association
same,hormone-independent promoter activation by splice variant AR-V7,AR-V7,inhibited
same,expression of AR target genes (mRNA),[6],decreased expression of only the genes known to be supported synergistically by ELK1 and AR
same,growth of DU145 cells,[7],did not appreciably affect
same,growth of HeLa cells,[8],did not appreciably affect
same,growth of HEK293 cells,[9],did not appreciably affect
same,growth of H1650 cells,[10],did not appreciably affect
same,expression of AR or AR-V7 proteins,[11],does not affect
same,immediate and peri-acute post-injection toxicity (dose determination),[12],asymptomatic post all doses given
same,half-life,in vivo,6 h
same,"cell growth inhibition, MTT, VCaP",VCaP cells,most sensitive
same,"cell growth inhibition, MTT, 22Rv1",22Rv1 cells,completely inhibited cell growth
same,"cell growth inhibition, MTT, LNCaP",LNCaP cells,completely inhibited cell growth
same,concentration beyond which colony growth was virtually completely inhibited,22Rv1 CRPC cells,> 125 nM
same,"plasma level of unmetabolized compound (median), Day 11",[13],387 nM
same,"plasma level of unmetabolized compound (median), Day 19",[13],70 nM
same,symptoms during PDX-PR011 study,"[2]; mouse, in vivo",asymptomatic
same,weight loss during PDX-PR011 study,"[2]; mouse, in vivo",did not show appreciable weight loss
same,"tumor growth, PDX-PR011 xenograft",[2],significantly inhibited
O=c1cc(-c2ccc(O)c(O)c2)oc2ccccc12 [3’.4’-Dihydroxyflavone],IC50 for inhibition of ELK1-dependent promoter activation by AR,[1],No effect
"COc1c(-c2ccc(O)c(O)c2)oc2cc(O)cc(O)c2c1=O [5,7,3’,4’-Tetrahydroxy-3-methoxyflavone]",IC50 for inhibition of ELK1-dependent promoter activation by AR,[1],No effect
"O=c1cc(-c2ccc(O)c(O)c2)oc2cc(O)cc(O)c12 [Hit 1, 5,7,3’,4’-Tetrahydroxyflavone]",IC50,[1],1010 nM
same,inhibition at 10 µM,"[1]; Mus musculus, MIN6, 6 h, read-out: inhibition in the primary screen",80 to 100%
same,effect on ARE-dependent promoter activation by AR (counter screen),[14],virtual absence of an effect
same,stability in vitro,[15],highly unstable
O=c1cc(-c2cccc(O)c2)oc2ccccc12 [3’-Hydroxyflavone],IC50 for inhibition of ELK1-dependent promoter activation by AR,[1],No effect
same,Kd,purified human AR,1430 nM
"O=c1cc(-c2cccc(O)c2)oc2cc(O)ccc12 [7,3’-Dihydroxyflavone]",IC50 for inhibition of ELK1-dependent promoter activation by AR,[1],No effect
